The text below walks through data of US9579364B2, “Methods for treating benign prostatic hypertrophy (BPH)” (New York University, priority 2002, dated 2017).

Marks after values point to notes of the source that are not given here. Bridge positions count the residues as written; N and C are the ends. Square brackets hold non-standard residues; d marks the D form. Peptide text beside a SMILES is read from it. dDab = NCC[C@@H](N)C(=O)O

For series [1] the following is noted: cited from earlier work.
In series [2] the test system is all five somatostatin receptor subtypes. Particulars: cited from earlier work.
The test system of series [3] is IGF-IR signaling. Particulars: chemical library screen; cited from earlier work.
The subject of series [4] is prostate of intact 28 day old male mice. As to the kind of experiment: PQ401 or SS14 treatment of intact 28 day old male mice: prostate. It is filed as in vivo. How it is done: To examine further the effect of various compounds on glandular and fibromuscular development of the prostate, somatostatin-14 (SS14, a native somatostatin) and an exemplary small molecule IGF-I receptor inhibitor PQ401 were assessed in a variety of animal models.
In a first experimental approach, the effect of treatment of intact 28 day old male mice with vehicle or PQ401 (a small molecule IGF-I receptor specific inhibitor) or somatostatin-14 (SS14; a native somatostatin) was evaluated. PQ401 and SS14 inhibit IGF-I action. For these experiments, N=5 mice per group. The results of these experiments are presented below in Tables 7-10: […]

The subject of series [5] is IGF-I receptor. As to the kind of experiment: IGF-I receptor immunopositive cells in prostate elements. It is filed as in vivo.
Series [6] has as its system probasin in epithelial cells of the prostate. As to the kind of experiment: Probasin immunostaining of prostate sections (FIG. 6). The series is classed as in vivo, mice. Particulars: FIG. 6(i-l).
Description: FIG. 6 depicts the effect of IGF-1 and/or T on histological appearance of prostate glands during development. Sections are shown through prostate glands from control animals (a, e, i) and animals treated with T alone (b, f, j), IGF-I alone (c, g, k), and IGF-I plus T (d, h, i). […] (i-1) Probasin immunostaining, brown color in the epithelial cells of the prostate. Magnification ×400.
The relative effects of IGF-I and T on prostate development were also studied in histological sections of whole prostate. This allowed determination of such effects on glandular microstructure and the stromal compartment of the prostate.
FIG. 6 depicts sections through prostate glands from control animals (FIG. 6(a, e, i)), animals treated with T alone (FIG. 6(b, f, j)), IGF-I alone (FIG. 6(c, g, k)), and IGF-I plus T (FIG. 6(d, h, i)).
Series [7] relates to prostate of castrated IGF-I^(−/−) male mice. As to the kind of experiment: Prostate glandular tree development, castrated IGF-I(-/-) male mice treated 28 days. It is filed as in vivo. Particulars: 28 days treatment. Here is the method: (§1) These include transgenic mice overexpressing a GH antagonist (that binds to and inactivates GH receptors making the animals functionally deficient in GH), growth hormone releasing factor receptor (GHRH-R^−/−) knockout mice (Lit/Lit), and Ames (df/df) mice (Prop 1 Deficiency). Deficient prostate development in GH inhibitor overexpression animals was previously reported (see Ruan et al, Endocrinology 140:1984-1989, 1999). Analysis of development was determined by dissecting away the periprostatic fat and teasing the glandular structures from the connective tissue in a solution containing collagenase so that the entire glandular tree could be photographed for later structural analysis. Much the same as in the mice overexpressing the mutant growth hormone, the other GH deficient mice had significant impairment of prostate development (p<0.0002) including a reduction in the number of terminal duct tips (TDTs), the area of the prostate gland, the number of quaternary branches and the number of branch points (TABLE 3). Any differences in these GH deficient mice may in part be due to the fact that the different strains were not analyzed at exactly the same age (Lit/Lit 50 days old, Ames 47 days old and bGH transgenic 44 days of age). The n was also different which may have led to greater significance in the Lit/Lit mice.
To clearly differentiate between the effects of IGF-I and T on development of the prostate gland, hormone replacement experiments were conducted on IGF-I^(−/−) male mice that had been castrated. In addition to evaluating the effect of IGF-I and T on gland structure development described above, we also evaluated the relative effects of these hormones on development of the stromal compartment of the prostate and also on histology of the glandular compartment. This was accomplished by sectioning and staining the prostate to highlight aspects of development.
Castrated IGF-I^(−/−) male mice were treated with T (administered by silastic capsules embedded on the backs of animals, subcutaneously). Des (1-3) IGF-I (40 μg/pump) was also implanted subcutaneously.

In series [8] the test system is prostate of castrated IGF-I^(−/−) null male mice. Nature of the series: Morphometry of histological prostate sections, castrated IGF-I(-/-) null male mice treated 7 days. It is filed as in vivo. Here is the method: Groups of castrated IGF-I^(−/−) null male mice were treated with either vehicle, testosterone in silastic capsules, des(1-3) IGF-I by an infusion through an Alzet pump containing 20 μg per pump, or the combination of testosterone and IGF-I for a period of 7 days.
In order to determine which specific structure was affected by which hormone, entire urogenital complexes were embedded in paraffin blocks, including the prostate glands, coagulating glands, seminal vesicles, urethra, urinary bladder attached to parts of the ureter, vas deferens, and ampullary glands. These were carefully sectioned such that the areas of prostate development could be analyzed.
The prostates were then removed, fixed and examined histologically. Morphometric analysis was carried on 30 cross sections of the prostate taken from five different serial sections. Changes in the area of the lumen, epithelial layer and fibromuscular layer were determined. These counts were performed using a Provis ×70 microscope (Olympus) attached to an Olympus DP10 digital camera. Images were taken using a 20× apochromate objective and were captured digitally at a resolution of 386 pixels. Data were tested for statistical significance using the SPSS statistical computer program (SPSS, Inc., Chicago, Ill.). Since assumptions for a parametric test were not valid (Kolmogorov-Sminov p<0.05), all data were evaluated by Kruskall-Wallis analysis of variance and the Mann-Whitney U test as a multiple comparison method.

Series [9] relates to prostate of IGF-I^(−/−) null male mice. As to the kind of experiment: Restoration of prostate development in IGF-I(-/-) null male mice. The series is classed as in vivo. The source says:
That IGF-I was also found to be essential for full prostate development was shown in a series of experiments employing IGF-I^(−/−) null male mice.

The subject of series [10] is prostate of castrated Ames dwarf mice. Nature of the series: IGFBP-1 inhibition of GH-induced prostate development in castrated Ames dwarf mice. The series is classed as in vivo. Particulars: 10-wk-old castrated Ames dwarf mice, 7 d. Here is the method:
To determine whether IGF-I inhibition could impair prostate development induced by GH-stimulated IGF-I and normal development in eugonadal animals, the effect of IGFBP-1 was tested in the following two models.
Ames dwarf mice have impaired prostate development because they are deficient in GH. They are also deficient in prolactin, TSH, and gonadotrophins (Andersen et al., 1995, Dev Biol 172:495-503; the entire content of which is incorporated herein by reference). To determine if IGFBP-1 could prevent bGH-induced IGF-I action, 10-wk-old castrated Ames animals were treated with bGH with or without infusion of IGFBP-1 for 7 d. IGFBP-1 inhibited GH-induced fibromuscular and glandular development (Table 6).

Series [11] relates to prostate of Lit/Lit dwarf animals. Nature of the series: bGH restoration of impaired prostate development in Lit/Lit dwarf animals. The series is classed as in vivo. Particulars: Lit/Lit dwarf mice. Here is the method:
as §1
The fact that GH treatment was capable of restoring impaired prostate development in GH deficient mice was shown in an experiment on Lit/Lit dwarf animals. Groups of animals were treated with either bGH (100 μg over 7 days by Alzet pump) or vehicle. The prostates were then removed and examined as described above. Treatment with bGH increased the number of TDTs from a mean of 48 (controls) to 61 (treated) p=0.011, the area of the gland from 0.71 cm^2 to 1.12 (NS), quaternary branching from 35 to 44 (p<0.01) and branch points from 37 to 46 (p=0.011).

Series [12] has as its system IGF-I. As to the kind of experiment: IGF-I by RIA in homogenates of prostate glands after bGH. The series is classed as in vivo. Particulars: 87 day old male mice, bGH 200 μg daily for 4 days; untreated 223. Here is the method: IGF-I, as measured by RIA, was detected in homogenates of prostate glands from 87 day old male mice (223 ng/5 prostates). When bGH (200 μg daily for 4 days) was administered IGF-I rose to 418-526 ng/5 prostates. Serum IGF-I was 494 ng/ml in normal male mice. The IGF-I in prostate was likely produced there because bGH increases IGF-I mRNA in prostate.

[13] abbreviates: castrated IGF-I knockout male mice, 7 days treatment.
Where [14] appears, read: castrated at 56 days, hormones for 7 days (Table 5).

Consider `C[C@@H](O)[C@@H]1NC(=O)[C@H](CCCCN)NC(=O)[C@@H](Cc2c[nH]c3ccccc23)NC(=O)[C@H](Cc2ccccc2)NC(=O)[C@H](Cc2ccccc2)NC(=O)[C@H](CCCNC(=N)N)NC(=O)[C@H](NC(=O)[C@@H](N)Cc2ccc(O)cc2)CCNC(=O)[C@H](Cc2ccccc2)NC1=O` [KE108] (H-Y[dDab]RFF[dW]KTF; lactam 2-C), for which the “stability in human serum” value in series [1] is “stable for several hours”. Also, in series [2], the “affinity for all five somatostatin receptor subtypes” value is recorded as “extremely high affinity”.

Regarding `COc1ccc(Cl)cc1NC(=O)Nc1cc(C)nc2ccccc12` [PQ401], the “inhibition of IGF-IR signaling” value in [3] is reported as “potent inhibitor”. The “area of the Longitudinal muscle” value in [4] (28 day old male mice, controls 0.939) is 0.868 mm^2. The “total area of the Circular muscle” value in series [4] (28 day old male mice, controls 1.322) was 0.789 mm^2. The “% Reduction of prostate weight” value in series [4] (intact 28 day old male mice, vs 28 day control) turned out to be 31%. For the same molecule, the prostate weight in series [4] (intact 28 day old male mice, control 26.8 ± 1.0, p < 0.0001) came to 18.4 ± 0.5 mg.

As for `C[C@]12CC[C@H]3[C@@H](CCC4=CC(=O)CC[C@@]43C)[C@@H]1CC[C@@H]2O` [TESTOSTERONE, testosterone], in [5] (prostate epithelium), the “% IGF-I receptor immunopositive cells, epithelium” value turned out to be 0%. For the same molecule, the “% IGF-I receptor immunopositive cells, fibromuscular” value in [5] (prostate fibromuscular elements) came to 95 ± 0.4%. In addition, in series [6], the “probasin immunostaining in the epithelial cells of the prostate” value is “scattered number of probasin immunopositive epithelial cells”. Besides, in [7], the “4°- branching, ventral prostate” value is listed as 8.0 ± 0.6 ^a; the “Area, dorsal prostate” value is on record as 0.15 ± 0.01 ^a cm^2; the “Area, ventral prostate” value was 0.16 ± 0.01 ^a cm^2; the “Branch Points, ventral prostate” value is given as 12.0 ± 1.2 ^. In series [7], the “Terminal Duct Tips, dorsal prostate” value is reported as 17.0 ± 1.2 ^a; the “Terminal Duct Tips, ventral prostate” value is on record as 16.3 ± 1.2 ^; the “Width of TDTs, dorsal prostate” value is on record as 0.227 ± 0.003 ^b mm; the “Width of TDTs, ventral prostate” value is reported as 0.236 ± 0.003 ^b mm. In [8] (setting [13]), the “Area of prostatic component (mean values): Eptithelium” value is recorded as “Eptithelium = 84,551.64 μm^2”, the “Area of prostatic component (mean values): Lumen” value is on record as “Lumen = 369,495.45 μm^2”, the “Area of prostatic component (mean values): Stroma (connective-muscle)” value is given as “Stroma (connective-muscle) = 89,797.254 μm^2” and the “Area of prostatic components (mean values): Total” value is recorded as “Total = 543,844.34 μm^2”. For the same molecule, in series [8] (setting [13]), the “Percentage of area: Eptithelium” value is 15%, the “Percentage of area: Lumen” value came out at 69% and the “Percentage of area: Stroma (connective-muscle)” value came to 16%. Further, in series [8] (setting [14]), the “Mean area of prostatic component: Epithelium” value is recorded as 84 × 10^3 μm^2, the “Mean area of prostatic component: Fibromuscular tissue” value is on record as 89 × 10^3 μm^2, the “Mean area of prostatic component: Lumen” value is 369 × 10^3 μm^2 and the Mean section size is on record as 543 × 10^3a μm^2. Further, in series [8] (setting [14]), the “percentage occupied: Epithelium” value is “(15%)^a”, the “percentage occupied: Fibromuscular tissue” value is given as “(16%)^b” and the “percentage occupied: Lumen” value was “(69%)^a”. Besides, the “restoring impaired prostate development” value in series [9] is recorded as “partially but significantly restored”.

B1: bGH: growth hormone (bGH) given to GH deficient mice by Alzet pump (protein, UniProt P01246 27-217, looked up)
Somatotropin: AFPAMSLSGLFANAVLRAQHLHQLAADTFKEFERTYIPEGQRYSIQNTQVAFCFSETIPAPTGKNEAQQKSDLELLRISLLLIQSWLGPLQFLSRVFTNSLVFGTSDRVYEKLKDLEEGILALMRELEDGTPRAGQILKQTYDKFDTNMRSDDALLKNYGLLSCFRKDLHKTETYLRVMKCRRFGEASCAF
As for B1, in series [10], the Epithelium was 160.5 ± 4.0^c,d μm^2 (×10^3), the Fibromuscular is 253.4 ± 18.6^a,b μm^2 (×10^3), the Lumen was 274.7 ± 11.9^c,d μm^2 (×10^3) and the Total is on record as 688.6 ± 32.4^a,b μm^2 (×10^3). Further, the “number of TDTs (mean)” value in series [11] (bGH 100 μg over 7 days by Alzet pump, controls 48, p=0.011) is 61. In series [11] (bGH 100 μg over 7 days, controls 0.71, NS), the “area of the gland” value turned out to be 1.12 cm^2. Further, the quaternary branching in series [11] (bGH 100 μg over 7 days, controls 35, p<0.01) was determined as 44. In addition, the branch points in [11] (bGH 100 μg over 7 days, controls 37, p=0.011) came out at 46. In series [9], the “restoring impaired prostate development” value was “no effect”. Besides, the “IGF-I in homogenates of prostate glands (RIA)” value in [12] is 418-526 ng/5 prostates.
